Experimental data from ChEMBL document CHEMBL1201862, “PubChem BioAssay data set” (2004).
Calls of active or inactive are those of the source. Cut-off read from the data, not from the text of the source: actives have a measured IC50 and inactives only a lower limit.

These molecules were tested against Envelope glycoprotein gp160 (Human immunodeficiency virus 1, UniProt Q6QLK5) (assay: cell-free HIV fusion peptide-binding blockers – biochemical, uHTS, fluorescence dequenching, […] (AID 1986)).
Chain of Envelope glycoprotein gp160 (Q6QLK5 whole entry, the tested form may be a part): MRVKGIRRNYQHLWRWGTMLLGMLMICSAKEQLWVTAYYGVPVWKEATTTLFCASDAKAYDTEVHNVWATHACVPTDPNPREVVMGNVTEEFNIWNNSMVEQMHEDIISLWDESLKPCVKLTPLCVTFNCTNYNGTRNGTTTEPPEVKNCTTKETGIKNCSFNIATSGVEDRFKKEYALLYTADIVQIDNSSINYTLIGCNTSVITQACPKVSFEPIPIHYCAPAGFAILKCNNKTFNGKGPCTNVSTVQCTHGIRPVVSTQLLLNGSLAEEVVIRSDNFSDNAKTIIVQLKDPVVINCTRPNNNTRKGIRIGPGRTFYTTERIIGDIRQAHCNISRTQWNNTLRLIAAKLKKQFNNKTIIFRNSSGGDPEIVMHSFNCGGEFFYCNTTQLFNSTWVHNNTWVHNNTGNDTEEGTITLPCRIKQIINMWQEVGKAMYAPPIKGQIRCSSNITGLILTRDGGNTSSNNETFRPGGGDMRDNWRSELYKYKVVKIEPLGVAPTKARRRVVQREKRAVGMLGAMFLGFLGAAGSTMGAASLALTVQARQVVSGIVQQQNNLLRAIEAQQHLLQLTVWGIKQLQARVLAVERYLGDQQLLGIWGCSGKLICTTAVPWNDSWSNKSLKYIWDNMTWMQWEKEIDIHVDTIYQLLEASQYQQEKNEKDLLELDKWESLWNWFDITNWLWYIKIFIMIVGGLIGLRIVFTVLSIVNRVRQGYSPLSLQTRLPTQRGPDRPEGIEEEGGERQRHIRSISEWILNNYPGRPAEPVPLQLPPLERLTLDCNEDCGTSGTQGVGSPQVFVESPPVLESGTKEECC
In the case of `CC(C)S(=O)(=O)C1=NSC2=NC(=O)/C(=C\c3ccc(-c4ccccc4)o3)C(=N)N21`, the IC50 is reported as 8.73 µM (active). In the case of `O=C1/C(=C\c2ccc(O)c(O)c2)C(c2ccccc2)=NN1c1ccccc1`, the IC50 is reported as 17.6 µM (active). For `COc1ccc(NS(=O)(=O)c2ccc3c(c2)[C@H]2C=CC[C@H]2[C@@H](c2ccc(C(=O)O)cc2)N3)cc1`, the IC50 was 8.25 µM (active).
